pIC50: −log10 of the molar value.

The target in data set [1] is T1, LINE1 reverse transcriptase (Homo sapiens, UniProt O00370). As to the kind of experiment: Transient artificial-intron Cis LINE1 reporter assay. Particulars: HEK 293 cells, ratio FLuc/RLuc reports LINE1 activity; read-out: IC50, inhibition of FLuc (FF/RR). The arrangement: expressed in transfected cells. In kind it is cell-based. The method, then: Intron-disrupted Firefly luciferase (FLuc) expression cassettes were generated as described by Xie, Y. et al. “Characterization of L1 retrotransposition with high-throughput dual-luciferase assays,” Nucleic Acid Res. (2011) Vol. 39, No. 3, e16. In addition, the plasmid contained an intact Renilla luciferase (RLuc) expression cassette on the vector backbone, in order to normalize transfection efficiency and measure potential cell toxicity.
HEK 293 cells were seeded in 96-well plates at 1,000 cells/well in 55 μL and grown for 24 hours. Cells were transfected with FuGeneHD (Promega) following the manufacturer's protocol. Each well received 0.133 ng plasmid, 0.4 μL FuGeneHD reagent, and 4.5 μL GlutaMAX-I-supplemented Opti-MEM I reduced-serum medium (Invitrogen). Cells were simultaneously treated with test compound serially diluted starting at 100 μM in a 3-fold dilution dose response.
Luminescence was measured using the Dual-Glo Luciferase Assay System (Promega) following the manufacturer's instructions. The ratio between FLuc and RLuc gene expression was used to report LINE1 activity.
Background: A reporter such as luciferase makes a cellular process visible.

Data set [2] has as its target T1, LINE1 reverse transcriptase. As to the kind of experiment: Stable artificial-intron Cis LINE1 reporter assay. In kind it is cell-based. More on the design: expressed in transfected cells; host or cells: HeLa Tet-On 3G (Takara, cat no 631183). As to conditions: HeLa L1 artificial-intron reporter cells, doxycycline induced, 72 h, Firefly luciferase; read-out: IC50, inhibition of LINE1 reverse transcriptase. The source says: A stable HeLa Tet-On 3G (Takara, cat no 631183) cell line expressing a bi-directional inducible LINE1 construct was generated as described in Xie, Y. et al. “Cell division promotes efficient retrotransposition in a stable L1 reporter cell line,” Mobile DNA (2013) 4:10. Single cell clones were screened for high Luciferase expression and the highest expression Firefly expressing clone was chosen for compound testing.
Test compound was serially diluted in DMSO and spotted in 96-well plates. Subsequently the HeLa L1 artificial-intron reporter cells were plated into the compound-containing wells (8,000 cells/well), and the cells were induced for reporter expression with doxycycline (Sigma cat no D9891) at a final concentration of 500 ng/mL. Luminescence was measured 72 h after plating using the Dual-Glo Luciferase Assay System (Promega cat no E2940) following the manufacturer's instructions. The Firefly Luciferase activity was used to report LINE1 activity.

For data set [3] the target is unchanged. As to the kind of experiment: Homogeneous time-resolved fluorescence (HTRF) LINE1 RT assay. More on the design: recombinant MBP-tagged LINE1 protein (238-1061); MBP; made in house. Particulars: recombinant MBP-tagged LINE1 protein (238-1061), read-out: IC50, inhibition of LINE1 reverse transcriptase. It counts as biochemical. The method, then: The LINE1 reverse transcriptase homogeneous time-resolved fluorescence (HTRF) assay was performed with recombinant MBP-tagged LINE1 protein (238-1061) (generated and purified according to procedures in Dai L. et al. BMC Biochemistry 2011; 12:18) in a 384-well format. Test compound was serially diluted in DMSO and further diluted in the assay buffer (50 mM Tris-HCl, 50 mM KCl, 10 mM MgCl2, 10 mM DTT, pH 8.1) to achieve a final DMSO concentration of 1%. The serially diluted compound was mixed with 64 ng/well of LINE1 enzyme, 5 nM of pre-annealed template/biotin-primer pair (synthesized at Generay Biotechnology), 10 nM of Fluorescein-12-dATP fluorescent probe (Perkin Elmer), and 1 μM dGTP/dCTP/dTTP (Thermo Fisher Scientific) in the assay buffer. The template/biotin-primer sequences were as follows:
After incubating at 25° C. for 60 minutes, the detection reagent (20 mM EDTA with streptavidin-terbium cryptate, Cisbio Bioassay) in the PPI buffer (Cisbio Bioassay) was added, and the mixture was incubated at 25° C. for 30 minutes. At the end of the incubation, fluorescence was read at ex/em=337/485 nm and ex/em=337/520 nm on an Envision 2104 plate reader (Perkin Elmer). The fluorescence ratio at 520/485 nm was used for the calculation. […] The IC50 was calculated by fitting the compound dose inhibition curve with a 4-parameter non-linear regression equation.

Data set [4] addresses HERV-K reverse transcriptase (Homo sapiens, UniProt V9H0F6). As to the kind of experiment: Homogeneous time-resolved fluorescence (HTRF) HERV-K RT assay. Particulars: HERV-K reverse transcriptase (2-596)-8His protein, read-out: IC50, inhibition of HERV-K reverse transcriptase. It counts as biochemical. The method, then:
The HERV-K reverse transcriptase homogeneous time-resolved fluorescence (HTRF) assay was performed in a 384-well format with HERV-K reverse transcriptase (2-596)-8His protein. Baculoviruses were created using Bac-to-Bac technology (Invitrogen). pFastBac donor plasmids containing HERV-K reverse transcriptase sequence (NCBI GenBank number AAC63291.1, J. Virology (1999) Vol. 73, No. 3, pp. 2365-2375) were transformed into DH10 Bac cells following the manufacturer's instructions. Recombinant bacmids were then isolated clonally and transfected into SF9 cells with lipofectin. HERV-K reverse transcriptase was expressed in the SF9 insect cells and then purified using immobilized metal affinity chromatography (IMAC) followed by size-exclusion chromatography (SEC). […]
After incubating at 25° C. for 30 minutes, the detection reagent 20 mM EDTA with streptavidin-terbium cryptate (Cisbio Bioassay) in the PPI buffer (Cisbio Bioassay) was added, and the mixture was incubated at 25° C. for 30 minutes. At the end of the incubation, fluorescence was read at ex/em=337/485 nm and ex/em=337/520 nm on an Envision 2104 plate reader (Perkin Elmer). The fluorescence ratio at 520/485 nm was used for the calculation. […] The IC50 was calculated by fitting the compound dose inhibition curve with a 4-parameter non-linear regression equation.
A general note: TR-FRET usually uses a lanthanide donor and a delayed reading to cut background.

In a further data set the test system is THP1-Dual KO-TREX1 cells. As to the kind of experiment: CellTiter-Glo cell viability in THP1 TREX1 KO cells. In kind it is cell-based. As to conditions: highest dose, with 1 μM 5-aza-2′-deoxycytidine, five days. The method, then:
THP1 Dual TREX1 KO cells were purchased from Invivogen. The THP1-Dual™ KO-TREX1 cells were cultured in RPMI 1640, 10% heat-inactivated fetal bovine serum, 25 mM HEPES, 10 μg/mL Blasticidin, and 100 μg/mL Zeocin. THP1-Dual™ KO-TREX1 cells were treated with a dose titration of test compound in the presence of 1 μM 5-aza-2′-deoxycytidine (Sigma, cat #189825). Type 1 Interferon and cell viability were assessed after five days of treatment.
Stock solution of test compound was prepared in DMSO followed by a three-fold dilution in DMSO. Additional 50× dilution was prepared in cell culture media for each dilution. 10 μL of diluted test compound was then added to a 384-well plate.
THP1-Dual™ KO-TREX1 cells were treated with 1 μM 5-aza-2′-deoxycytidine. THP1-Dual™ KO-TREX1 cells (50 μL) were added to each well of the 384-well plate containing test compound titration at 10,000 cells/well. Cells were incubated at 37° C., 5% CO2 in a humidified incubator for five days. […] Luminescence was detected on a plate reader according to manufacturer's instructions. […]
The remaining cells were assessed for cell viability by adding 30 μl of CellTiter-Glo (Promega, 09683) solution to each well, and placed on a shaker for 10 minutes at room temperature. Luminescence was detected on a plate reader, according to manufacturer's instructions. […]
On the technique in general: In ATP-based viability assays light output follows the ATP content of the culture.

Sequence of HERV-K reverse transcriptase (V9H0F6 entry or part of it): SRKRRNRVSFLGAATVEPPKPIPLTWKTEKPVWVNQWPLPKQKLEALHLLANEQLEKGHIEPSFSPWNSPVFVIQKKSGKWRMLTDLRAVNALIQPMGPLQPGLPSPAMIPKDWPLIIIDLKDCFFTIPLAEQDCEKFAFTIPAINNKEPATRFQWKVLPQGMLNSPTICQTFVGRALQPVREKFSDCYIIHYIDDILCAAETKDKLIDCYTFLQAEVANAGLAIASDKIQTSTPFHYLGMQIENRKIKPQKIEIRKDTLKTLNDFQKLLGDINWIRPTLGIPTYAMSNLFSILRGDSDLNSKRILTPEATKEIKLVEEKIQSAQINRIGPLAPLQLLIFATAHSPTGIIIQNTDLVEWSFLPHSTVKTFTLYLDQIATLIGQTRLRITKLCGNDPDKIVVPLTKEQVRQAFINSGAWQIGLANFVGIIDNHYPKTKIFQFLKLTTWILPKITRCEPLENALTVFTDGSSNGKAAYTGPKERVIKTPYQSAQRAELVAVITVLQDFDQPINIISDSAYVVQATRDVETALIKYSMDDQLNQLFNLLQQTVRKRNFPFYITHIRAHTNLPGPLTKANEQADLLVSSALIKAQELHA

As to `COC(=O)[C@H](C)NP(=O)(OC[C@@H]1C=C[C@H](n2cc(C)c(=O)[nH]c2=O)O1)Oc1ccc(Br)cc1` (some centres unmarked) [drawing 36], the pIC50 in data set [1] is 8.24.

With `COC(=O)[C@H](C)NP(=O)(OC[C@@H]1C=C[C@H](n2cc(C)c(=O)[nH]c2=O)O1)Oc1ccc(Br)cc1` (some centres unmarked) [drawing 37], the pIC50 in data set [2] is 7.77.

As to `Cc1cn([C@H]2C=C[C@@H](COP(=O)(O)OP(=O)(O)OP(=O)(O)O)O2)c(=O)[nH]c1=O` [drawing 38], in data set [3], the pIC50 was 7.64. As for `Cc1cn([C@H]2C=C[C@@H](COP(=O)(O)OP(=O)(O)OP(=O)(O)O)O2)c(=O)[nH]c1=O` [drawing 39], in data set [4], the pIC50 is 7.38.

For `Cc1cn([C@H]2C=C[C@@H](CO)O2)c(=O)[nH]c1=O` [stavudine, 1-((2R,5S)-5-(hydroxymethyl)-2,5-dihydrofuran-2-yl)-5-methylpyrimidine-2,4(1H,3H)-dione, reference compound], the “reduction in cell viability” value in the data set with THP1-Dual KO-TREX1 cells was ~10%.
